{"source": "patent US9353152B2", "about": "“Induction of the mitochondrial permeability transition” (NewSouth Innovations Pty Limited, priority 2002, dated 2016)", "key": {"MPTP": {"target": "T1, MPTP (Rattus norvegicus, UniProt Q09073)", "T1 construct": "Mitochondria were isolated from the livers of ˜250 g male Wistar rats; from tissue; host or cells: rat liver mitochondria (male Wistar rats)", "T1 sequence (Q09073 2-298 limits assumed)": "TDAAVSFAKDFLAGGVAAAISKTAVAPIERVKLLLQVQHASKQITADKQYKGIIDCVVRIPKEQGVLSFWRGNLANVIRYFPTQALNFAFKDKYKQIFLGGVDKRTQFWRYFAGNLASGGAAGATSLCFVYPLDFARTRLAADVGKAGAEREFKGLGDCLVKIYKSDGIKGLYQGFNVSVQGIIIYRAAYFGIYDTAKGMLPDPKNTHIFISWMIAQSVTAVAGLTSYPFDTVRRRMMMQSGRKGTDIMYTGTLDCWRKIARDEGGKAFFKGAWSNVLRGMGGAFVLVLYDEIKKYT", "assay": "Mitochondria swelling assay (MPT induction, decrease in light scattering at 520 nm)", "type": "biochemical"}, "CAM angiogenesis": {"tested_on": "CAM angiogenesis", "assay": "Chick chorioallantoic membrane (CAM) angiogenesis assay", "type": "in vivo", "conditions": "5, 10 or 50 μg per pellet, 48 h", "protocol": "Fertilised 3 day-old white Leghorn eggs (Spafas, Norwich, Conn.) were cracked, the embryos with intact yolks placed in 20×100 mm petri dishes and incubated for 3 days at 37° C. and 3% CO2 (Folkman, 1985). Methylcellulose (Fisher Scientific, Fair Lawn, N.J.) discs containing 5, 10 or 50 μg of either GSAA or GSAO were then applied to the CAM of individual embryos and incubated for 48 h at 37° C. and 3% CO2. The discs were made by desiccation of GSAA or GSAO in 10 μl of 0.45% methycellulose on teflon rods. The CAMs were observed using a stereomicroscope and scored for no obvious affect or inhibition of CAM angiogenesis as defined by avascular zones. On some occasions CAM blood vessels were injected with India ink and photographed."}}, "data": [{"smiles": "N[C@@H](CCC(=O)N[C@@H](CSCC(=O)Nc1ccc([As]=O)cc1)C(=O)NCC(=O)O)C(=O)O", "note": "(stereo partly drawn) [GSAO, 4-(N—(S-glutathionylacetyl)amino)-phenylarsenoxide]", "values": [{"measurement": "half-time for GSAO mediated swelling of the mitochondria", "setting": "MPTP; 50-200 μM GSAO, increasing Ca^2+ concentration", "value": "reduced by added Ca^2+"}, {"measurement": "swelling of isolated rat liver mitochondria", "setting": "MPTP; GSAO 25-200 μM, GSAA, GSCA 100 μM, 60 min", "value": "triggered swelling"}, {"measurement": "inhibition of CAM angiogenesis (avascular zones)", "setting": "CAM angiogenesis", "value": "inhibited CAM angiogenesis in a concentration-dependent manner"}]}]}
